Data taken from PubChem BioAssay (NCI).
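Growth conditions: 96-well plates. Treatment: test compound, 48 hours, 5 concentrations. Analysis: linear interpolation between bracketing concentrations; unreached endpoints set to highest concentration. Abbreviation: GI50, concentration required for 50% inhibition of growth. TGI denotes the concentration required for complete inhibition of growth.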

Assays:
Experiment in all cases: NCI-60 cell line screen, 48 h
[1] = test system: 786-0 renal
[2] = test system: A549 NSCLC
[3] = test system: ACHN renal
[4] = test system: CCRF-CEM leukemia
[5] = test system: COLO 205 colon
[6] = test system: DLD-1 colon
[7] = test system: DMS 114 small cell lung
[8] = test system: DMS 273 small cell lung
[9] = test system: EKVX NSCLC
[10] = test system: HCC-2998 colon
[11] = test system: HCT-116 colon
[12] = test system: HCT-15 colon
[13] = test system: HL-60(TB) leukemia
[14] = test system: HOP-62 NSCLC
[15] = test system: HOP-92 NSCLC
[16] = test system: HT29 colon
[17] = test system: IGROV1 ovarian
[18] = test system: K-562 leukemia
[19] = test system: KM12 colon
[20] = test system: KM20L2 colon
[21] = test system: LXFL 529 NSCLC
[22] = test system: M14 melanoma
[23] = test system: M19-MEL melanoma
[24] = test system: MALME-3M melanoma
[25] = test system: MOLT-4 leukemia
[26] = test system: NCI-H23 lung
[27] = test system: NCI-H460 lung
[28] = test system: NCI-H522 lung
[29] = test system: OVCAR-3 ovarian
[30] = test system: OVCAR-4 ovarian
[31] = test system: OVCAR-5 ovarian
[32] = test system: OVCAR-8 ovarian
[33] = test system: RPMI-8226 leukemia
[34] = test system: RXF 393 renal
[35] = test system: SF-268 CNS
[36] = test system: SF-295 CNS
[37] = test system: SF-539 CNS
[38] = test system: SK-MEL-2 melanoma
[39] = test system: SK-MEL-28 melanoma
[40] = test system: SK-MEL-5 melanoma
[41] = test system: SN12C renal
[42] = test system: SNB-19 CNS
[43] = test system: SNB-75 CNS
[44] = test system: SNB-78 CNS
[45] = test system: SW-620 colon
[46] = test system: TK-10 renal
[47] = test system: U251 CNS
[48] = test system: UACC-257 melanoma
[49] = test system: UACC-62 melanoma
[50] = test system: UO-31 renal
[51] = test system: A498 renal
[52] = test system: BT-549 breast
[53] = test system: CAKI-1 renal
[54] = test system: DU-145 prostate
[55] = test system: HS 578T breast
[56] = test system: LOX IMVI melanoma
[57] = test system: MCF7 breast
[58] = test system: MDA-MB-231 breast
[59] = test system: MDA-MB-435
[60] = test system: MDA-N
[61] = test system: NCI-H226 lung
[62] = test system: NCI/ADR-RES ovarian
[63] = test system: PC-3 prostate
[64] = test system: SK-OV-3 ovarian
[65] = test system: SR leukemia
[66] = test system: T-47D breast

Q: Which TGI [1] does the source give for `C#CCN(C(=O)C(F)(F)F)c1ccc(C(=O)c2ccc(N(CC#C)C(=O)C(F)(F)F)cc2)cc1` here?
A: > 100 µM

Q: And the TGI [2]?
A: > 100 µM

Q: What about the TGI [3] of the same compound?
A: > 100 µM

Q: And the TGI [4]?
A: > 100 µM

Q: What about the TGI [5] of the same compound?
A: 92.5 µM

Q: And the TGI [6]?
A: > 100 µM

Q: What about the TGI [7] of the same compound?
A: 55.1 µM

Q: What about the TGI [8] of the same compound?
A: 63.9 µM

Q: And the TGI [9]?
A: > 100 µM

Q: And the TGI [10]?
A: > 100 µM

Q: What about the TGI [11] of the same compound?
A: > 100 µM

Q: What about the TGI [12] of the same compound?
A: 79.9 µM

Q: What about the TGI [13] of the same compound?
A: 40.3 µM

Q: What about the TGI [14] of the same compound?
A: > 100 µM

Q: And the TGI [15]?
A: 81 µM

Q: And the TGI [16]?
A: 45.4 µM

Q: And the TGI [17]?
A: > 100 µM

Q: And the TGI [18]?
A: 62.9 µM

Q: What about the TGI [19] of the same compound?
A: > 100 µM

Q: And the TGI [20]?
A: > 100 µM

Q: And the TGI [21]?
A: > 100 µM

Q: What about the TGI [22] of the same compound?
A: > 100 µM

Q: And the TGI [23]?
A: > 100 µM

Q: What about the TGI [24] of the same compound?
A: > 100 µM

Q: And the TGI [25]?
A: 64.9 µM

Q: What about the TGI [26] of the same compound?
A: 71.6 µM

Q: And the TGI [27]?
A: > 100 µM

Q: What about the TGI [28] of the same compound?
A: 49.4 µM

Q: What about the TGI [29] of the same compound?
A: 88.6 µM

Q: What about the TGI [30] of the same compound?
A: > 100 µM

Q: What about the TGI [31] of the same compound?
A: > 100 µM

Q: What about the TGI [32] of the same compound?
A: > 100 µM

Q: And the TGI [33]?
A: 51.2 µM

Q: What about the TGI [34] of the same compound?
A: > 100 µM

Q: What about the TGI [35] of the same compound?
A: > 100 µM

Q: And the TGI [36]?
A: > 100 µM

Q: And the TGI [37]?
A: > 100 µM

Q: What about the TGI [38] of the same compound?
A: 87.9 µM

Q: And the TGI [39]?
A: > 100 µM

Q: What about the TGI [40] of the same compound?
A: > 100 µM

Q: And the TGI [41]?
A: > 100 µM

Q: And the TGI [42]?
A: > 100 µM

Q: And the TGI [43]?
A: > 100 µM

Q: What about the TGI [44] of the same compound?
A: > 100 µM

Q: What about the TGI [45] of the same compound?
A: > 100 µM

Q: What about the TGI [46] of the same compound?
A: > 100 µM

Q: What about the TGI [47] of the same compound?
A: > 100 µM

Q: What about the TGI [48] of the same compound?
A: 86.6 µM

Q: What about the TGI [49] of the same compound?
A: 54.1 µM

Q: And the TGI [50]?
A: > 100 µM

Q: What does the source list for `Nc1nc(N)c2cc(Sc3cccc(C(F)(F)F)c3)ccc2n1`?
A: TGI [1]: 5.38 µM; GI50 [51]: 2.17 µM; TGI [51]: 14.4 µM; TGI [2]: 13.2 µM; TGI [3]: 14.7 µM; TGI [52]: 20.5 µM; TGI [53]: 16.7 µM; TGI [4]: 15.3 µM; TGI [5]: 3.02 µM; TGI [54]: 14.4 µM; TGI [9]: 19.8 µM; TGI [10]: 2.83 µM; TGI [11]: 1.33 µM; TGI [12]: 12.7 µM; TGI [13]: 3.24 µM; TGI [14]: 15.9 µM; TGI [15]: 9.54 µM; TGI [55]: 10.2 µM; TGI [16]: 8.16 µM; TGI [17]: 15.6 µM; TGI [18]: 1.92 µM; TGI [19]: 11.3 µM; GI50 [56]: 0.307 µM; TGI [56]: 1.82 µM; TGI [22]: 2.21 µM; TGI [24]: 2.91 µM; TGI [57]: 16.2 µM; TGI [58]: 7.14 µM; TGI [59]: 5.81 µM; TGI [60]: 13.9 µM; TGI [25]: 6.08 µM; GI50 [61]: 2.34 µM; TGI [61]: 8.15 µM; TGI [26]: 16.4 µM; TGI [27]: 4.77 µM; TGI [28]: 8.34 µM; TGI [62]: 14.8 µM; TGI [29]: 13.6 µM; TGI [30]: 18.6 µM; TGI [31]: 16.3 µM; GI50 [32]: 0.713 µM; TGI [32]: 4.55 µM; GI50 [63]: 0.698 µM; TGI [63]: 14.9 µM; TGI [33]: 5.43 µM; GI50 [34]: 1.01 µM; TGI [34]: 2.53 µM; TGI [35]: 19 µM; TGI [36]: 8.97 µM; TGI [37]: 13.9 µM; TGI [38]: 5.25 µM; TGI [39]: 7.61 µM; TGI [40]: 5.86 µM; TGI [64]: 21 µM; TGI [41]: 15.7 µM; TGI [42]: 18.4 µM; TGI [43]: 15.9 µM; TGI [65]: 4.71 µM; GI50 [45]: 0.267 µM; TGI [45]: 1.57 µM; GI50 [66]: 1.71 µM; TGI [66]: 3.6 µM; TGI [46]: 14 µM; TGI [47]: 4.78 µM; GI50 [48]: 1.27 µM; TGI [48]: 3.36 µM; TGI [49]: 5.49 µM; TGI [50]: 9.84 µM
